The supplement of paper PMC10307832

Legend:
Assay in all cases: relative viability (nuclei count vs DMSO), 5 days (fraction); higher = more cells survive
[1] = compound: CN(C)C[C@@H]1CCn2cc(c3ccccc32)C2=C(C(=O)NC2=O)c2cn(c3ccccc23)CCO1 [Ruboxistaurin] + Nc1ncn([C@H]2C[C@H](O)[C@@H](CO)O2)c(=O)n1 [Decitabine] (partner 2 µM)
How it was run: (§1)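 Lung cancer cell lines in 1536-well plates got either a single drug or a fixed anchor-drug dose together with five library-drug doses (not always all listed) in √10 steps, by pin tool, on the day after seeding. Nuclei were counted after 5 days, and relative viability is the treated-to-vehicle ratio of nuclei counts. Values are medians of duplicate plates.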

[2] = compound: CN(C)C[C@@H]1CCn2cc(c3ccccc32)C2=C(C(=O)NC2=O)c2cn(c3ccccc23)CCO1 [Ruboxistaurin] + COc1cc2c(Oc3ccc(NC(=O)C4(C(=O)Nc5ccc(F)cc5)CC4)cc3F)ccnc2cc1OCCCN1CCOCC1 [Foretinib] (partner 0.25 µM)
How it was run: as §1

[3] = compound: CN(C)C[C@@H]1CCn2cc(c3ccccc32)C2=C(C(=O)NC2=O)c2cn(c3ccccc23)CCO1 [Ruboxistaurin] + Cc1cc(Nc2cc(N3CCN(C)CC3)nc(Sc3ccc(NC(=O)C4CC4)cc3)n2)n[nH]1 [Tozasertib] (partner 0.1 µM)
How it was run: as §1

[4] = compound: CN(C)C[C@@H]1CCn2cc(c3ccccc32)C2=C(C(=O)NC2=O)c2cn(c3ccccc23)CCO1 [Ruboxistaurin] + Cc1nc(Nc2ncc(C(=O)Nc3c(C)cccc3Cl)s2)cc(N2CCN(CCO)CC2)n1 [Dasatinib] (partner 0.075 µM)
How it was run: as §1

[5] = compound: CN(C)C[C@@H]1CCn2cc(c3ccccc32)C2=C(C(=O)NC2=O)c2cn(c3ccccc23)CCO1 [Ruboxistaurin] + CC1(C)CCC(c2ccc(Cl)cc2)=C(CN2CCN(c3ccc(C(=O)NS(=O)(=O)c4ccc(N[C@H](CCN5CCOCC5)CSc5ccccc5)c(S(=O)(=O)C(F)(F)F)c4)cc3)CC2)C1 [Navitoclax] (partner 0.5 µM)
How it was run: as §1

Cell Line	relative viability ([1]; first compound 0.08 µM)	relative viability ([1]; first compound 0.8 µM)	relative viability ([1]; first compound 2.53 µM)	relative viability ([1]; first compound 8 µM)	relative viability ([2]; first compound 0.08 µM)	relative viability ([2]; first compound 0.8 µM)	relative viability ([2]; first compound 2.53 µM)	relative viability ([2]; first compound 8 µM)	relative viability ([3]; first compound 0.08 µM)	relative viability ([3]; first compound 0.8 µM)	relative viability ([3]; first compound 2.53 µM)	relative viability ([3]; first compound 8 µM)	relative viability ([4]; first compound 0.08 µM)	relative viability ([4]; first compound 0.8 µM)	relative viability ([4]; first compound 2.53 µM)	relative viability ([4]; first compound 8 µM)	relative viability ([5]; first compound 0.08 µM)	relative viability ([5]; first compound 0.8 µM)	relative viability ([5]; first compound 2.53 µM)	relative viability ([5]; first compound 8 µM)
NCI-H358	0.227	0.205	0.246	0.256	0.878	0.603	0.829	0.535	0.116	0.0986	0.118	0.0882	0.177	0.149	0.149	0.148				
NCI-H522	0.753	0.671	0.667	0.658					0.502	0.502	0.563	0.524	0.835	0.83	0.953	0.719				
NCI-H650	0.312	0.343	0.296	0.34	1.11	1.01	1.06	1.2	0.81	0.685	0.82	0.863	0.5	0.384	0.516	0.433				
NCI-H661	0.563	0.555	0.578	0.61	1.05	0.996	1.07	1.07	0.366	0.332	0.372	0.344	0.982	0.776	1.01	1.04				
NCI-H1563					1.03	0.892	0.946	0.856					0.499	0.502	0.465	0.404				
NCI-H1703					0.367		0.408	0.327									1.14	0.992	0.991	0.525
NCI-H1792	0.63	0.479	0.491	0.554									0.829	0.667	0.77	0.781	0.701	0.605	0.637	0.68
NCI-H2228					0.906	0.772	0.86	0.729	0.317	0.202	0.237	0.187	0.615	0.493	0.49	0.456	0.922	0.907	1.15	0.692
NCI-H2342	0.689	0.737	0.757	0.819	1.2	0.83	1.06	1.18	0.578	0.56	0.461	0.497	0.364	0.312	0.303	0.277				
SW 900	0.4	0.395	0.5	0.566	0.918	0.872	0.833	0.955	0.647	0.499	0.656	0.452	0.838	0.436	0.64	0.383				
